Data taken from paper PMC6707612, “Cyclic-di-GMP binds to histidine kinase RavS to control RavS-RavR phosphotransfer and regulates the bacterial lifestyle transition between virulence and swimming” (PLoS Pathogens, 2019).

Molecular target: T1, RavR^ΔEAL (Xanthomonas campestris pv. campestris, UniProt Q8P9A7)
T1 sequence (Q8P9A7 with tags, fused parts or gaps): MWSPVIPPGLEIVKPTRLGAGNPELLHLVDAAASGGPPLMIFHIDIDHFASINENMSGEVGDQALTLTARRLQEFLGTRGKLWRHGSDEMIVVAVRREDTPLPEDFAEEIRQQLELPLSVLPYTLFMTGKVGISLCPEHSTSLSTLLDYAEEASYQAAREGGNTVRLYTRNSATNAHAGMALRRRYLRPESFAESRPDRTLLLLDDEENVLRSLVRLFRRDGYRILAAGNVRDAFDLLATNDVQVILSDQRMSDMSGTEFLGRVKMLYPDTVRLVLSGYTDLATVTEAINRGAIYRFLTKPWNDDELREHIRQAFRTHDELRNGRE
Assay: microscale thermophoresis (MST) binding
Conditions: 20 nM fluorescein-labelled nucleotide

Nc1nc2c(ncn2[C@@H]2O[C@@H]3COP(=O)(O)O[C@H]4[C@@H](O)[C@H](n5cnc6c(=O)[nH]c(N)nc65)O[C@@H]4COP(=O)(O)O[C@H]3[C@H]2O)c(=O)[nH]1 [c-di-GMP, Cyclic di-GMP]
dissociation constant (Kd): did not bind
